Measured values from PubChem BioAssay AID2060618 (Molecular Pharmacology Branch, DTP, NCI, 2025).

Tested on: 454973-116-R2-J3-PDC spheroids, percent test/control viability
Assay: Anticancer human tumor 454973-116-R2-J3-PDC patient-derived pancreatic carcinoma cell line growth inhibition [CLK]
Conditions: spheroids with HUVEC and MSC; for IC50: curve of first compound; for viability, T/C: stronger effect = lower value
In short: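 Patient-derived tumor cells grown as complex spheroids with HUVEC endothelial cells and mesenchymal stem cells, treated with drug combinations. Concentrations descend in half-log steps from near clinical Cmax, or from 10 microM if Cmax unknown.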

[1] = second compound 0.0316 µM, first compound 0.0316 µM
[2] = second compound 0.0316 µM, first compound 0.1 µM
[3] = second compound 0.0316 µM, first compound 0.316 µM
[4] = second compound 0.0316 µM, first compound 1 µM
[5] = second compound 0.0316 µM, first compound 3.16 µM
[6] = second compound 0.0316 µM, first compound 10 µM
[7] = second compound 0.1 µM, first compound 0.0316 µM
[8] = second compound 0.1 µM, first compound 0.1 µM
[9] = second compound 0.1 µM, first compound 0.316 µM
[10] = second compound 0.1 µM, first compound 1 µM
[11] = second compound 0.1 µM, first compound 3.16 µM
[12] = second compound 0.1 µM, first compound 10 µM
[13] = second compound 0.316 µM, first compound 0.0316 µM
[14] = second compound 0.316 µM, first compound 0.1 µM
[15] = second compound 0.316 µM, first compound 0.316 µM
[16] = second compound 0.316 µM, first compound 1 µM
[17] = second compound 0.316 µM, first compound 3.16 µM
[18] = second compound 0.316 µM, first compound 10 µM
[19] = second compound 1 µM, first compound 0.0316 µM
[20] = second compound 1 µM, first compound 0.1 µM
[21] = second compound 1 µM, first compound 0.316 µM
[22] = second compound 1 µM, first compound 1 µM
[23] = second compound 1 µM, first compound 3.16 µM
[24] = second compound 1 µM, first compound 10 µM
[25] = second compound 3.16 µM, first compound 0.0316 µM
[26] = second compound 3.16 µM, first compound 0.1 µM
[27] = second compound 3.16 µM, first compound 0.316 µM
[28] = second compound 3.16 µM, first compound 1 µM
[29] = second compound 3.16 µM, first compound 3.16 µM
[30] = second compound 3.16 µM, first compound 10 µM
[31] = second compound 10 µM, first compound 0.0316 µM
[32] = second compound 10 µM, first compound 0.1 µM
[33] = second compound 10 µM, first compound 0.316 µM
[34] = second compound 10 µM, first compound 1 µM
[35] = second compound 10 µM, first compound 3.16 µM
[36] = second compound 10 µM, first compound 10 µM
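Note: spheroids exposed to compounds for 7 days before readout.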

`C#Cc1c(F)ccc2cc(O)cc(-c3ncc4c(N5CC6CCC(C5)N6)nc(OCC56CCCN5CC(F)C6)nc4c3F)c12` (stereo unspecified) + CNC(=O)c1ccc(Nc2nc(OC3CCCC3)c3c(-c4ccc5nc(C)oc5c4)c[nH]c3n2)c(OC)c1 was tested, and the IC50 (second compound 0.0316 µM) was 40.1 nM, the IC50 (second compound 0.1 µM) was 35 nM and the IC50 (second compound 0.316 µM) was less than 31.6 nM. The IC50 (second compound 1 µM) was less than 31.6 nM, the IC50 (second compound 3.16 µM) was less than 31.6 nM and the IC50 (second compound 10 µM) was less than 31.6 nM. The viability, T/C [1] was 52.8%, the viability, T/C [2] was 41.1% and the viability, T/C [3] was 32.7%. For the same compound, the viability, T/C [4] was 32.5%, the viability, T/C [5] was 29.4% and the viability, T/C [6] was 22.4%. For the same compound, the viability, T/C [7] was 50.7%, the viability, T/C [8] was 43.8% and the viability, T/C [9] was 33.5%. For the same compound, the viability, T/C [10] was 27.5%, the viability, T/C [11] was 26% and the viability, T/C [12] was 15.1%. The viability, T/C [13] was 37.8%, the viability, T/C [14] was 30.9% and the viability, T/C [15] was 19.4%. The viability, T/C [16] was 12.7%, the viability, T/C [17] was 13.8% and the viability, T/C [18] was 12.1%. For the same compound, the viability, T/C [19] was 16.7%, the viability, T/C [20] was 12.7% and the viability, T/C [21] was 12.2%. It also gave a viability, T/C [22] of 12.7%, a viability, T/C [23] of 10.9% and a viability, T/C [24] of 7.84%. It also gave a viability, T/C [25] of 15.9%, a viability, T/C [26] of 12.7% and a viability, T/C [27] of 11.3%. For the same compound, the viability, T/C [28] was 11.3%, the viability, T/C [29] was 9.18% and the viability, T/C [30] was 6.34%. For the same compound, the viability, T/C [31] was 17.9%, the viability, T/C [32] was 12.4% and the viability, T/C [33] was 11.5%. For the same compound, the viability, T/C [34] was 12%, the viability, T/C [35] was 10.3% and the viability, T/C [36] was 5.25%.

`C=C(F)C(=O)N1CCN(c2nc(OCC3CCCN3C)nc3c2CCN(c2cccc4cccc(Cl)c24)C3)CC1CC#N` (stereo unspecified) + CNC(=O)c1ccc(Nc2nc(OC3CCCC3)c3c(-c4ccc5nc(C)oc5c4)c[nH]c3n2)c(OC)c1 showed an IC50 (second compound 0.0316 µM) of 5840 nM, an IC50 (second compound 0.1 µM) of 4820 nM and an IC50 (second compound 0.316 µM) of less than 31.6 nM. The IC50 (second compound 1 µM) was less than 31.6 nM, the IC50 (second compound 3.16 µM) was less than 31.6 nM and the IC50 (second compound 10 µM) was less than 31.6 nM. For the same compound, the viability, T/C [1] was 111%, the viability, T/C [2] was 114% and the viability, T/C [3] was 109%. For the same compound, the viability, T/C [4] was 109%, the viability, T/C [5] was 106% and the viability, T/C [6] was 1.38%. For the same compound, the viability, T/C [7] was 96.9%, the viability, T/C [8] was 85% and the viability, T/C [9] was 75.7%. The viability, T/C [10] was 89.8%, the viability, T/C [11] was 78.3% and the viability, T/C [12] was 0.85%. For the same compound, the viability, T/C [13] was 39.6%, the viability, T/C [14] was 36.1% and the viability, T/C [15] was 38.2%. For the same compound, the viability, T/C [16] was 37.2%, the viability, T/C [17] was 39.5% and the viability, T/C [18] was 0.19%. For the same compound, the viability, T/C [19] was 35.2%, the viability, T/C [20] was 27.1% and the viability, T/C [21] was 30.4%. It also gave a viability, T/C [22] of 36.5%, a viability, T/C [23] of 31.1% and a viability, T/C [24] of 0.5%. For the same compound, the viability, T/C [25] was 29.8%, the viability, T/C [26] was 27.9% and the viability, T/C [27] was 28.5%. It also gave a viability, T/C [28] of 34.6%, a viability, T/C [29] of 27.2% and a viability, T/C [30] of 0.29%. It also gave a viability, T/C [31] of 28.2%, a viability, T/C [32] of 24.4% and a viability, T/C [33] of 26.5%. The viability, T/C [34] was 25.3%, the viability, T/C [35] was 19.2% and the viability, T/C [36] was 0.25%.

For `CC(CO)NC(=O)c1cc(-c2ccc(Cl)cc2)nn(-c2cnn(C)c2)c1=O` (stereo unspecified) + CNC(=O)c1ccc(Nc2nc(OC3CCCC3)c3c(-c4ccc5nc(C)oc5c4)c[nH]c3n2)c(OC)c1, the IC50 (second compound 0.0316 µM) was greater than 10000 nM, the IC50 (second compound 0.1 µM) was greater than 10000 nM and the IC50 (second compound 0.316 µM) was less than 31.6 nM. For the same compound, the IC50 (second compound 1 µM) was less than 31.6 nM, the IC50 (second compound 3.16 µM) was less than 31.6 nM and the IC50 (second compound 10 µM) was less than 31.6 nM. The viability, T/C [1] was 105%, the viability, T/C [2] was 96.5% and the viability, T/C [3] was 111%. For the same compound, the viability, T/C [4] was 112%, the viability, T/C [5] was 100% and the viability, T/C [6] was 77%. For the same compound, the viability, T/C [7] was 105%, the viability, T/C [8] was 105% and the viability, T/C [9] was 96.2%. For the same compound, the viability, T/C [10] was 99.7%, the viability, T/C [11] was 101% and the viability, T/C [12] was 80.8%. It also gave a viability, T/C [13] of 46%, a viability, T/C [14] of 41.3% and a viability, T/C [15] of 47.2%. For the same compound, the viability, T/C [16] was 37.1%, the viability, T/C [17] was 45.2% and the viability, T/C [18] was 43.5%. The viability, T/C [19] was 33.7%, the viability, T/C [20] was 32.9% and the viability, T/C [21] was 32.8%. The viability, T/C [22] was 31.6%, the viability, T/C [23] was 30.8% and the viability, T/C [24] was 32.1%. It also gave a viability, T/C [25] of 24.5%, a viability, T/C [26] of 31.7% and a viability, T/C [27] of 30.2%. It also gave a viability, T/C [28] of 30.5%, a viability, T/C [29] of 34.9% and a viability, T/C [30] of 29%. The viability, T/C [31] was 30.3%, the viability, T/C [32] was 31.7% and the viability, T/C [33] was 31.8%. It also gave a viability, T/C [34] of 27.6%, a viability, T/C [35] of 29.3% and a viability, T/C [36] of 24.7%.
